This note sets out measurements from patent US20040038950A1, “Pharmaceutical composition for treating IL-1 related diseases or disorders” (priority 2002, published 2004).

Assay [1] has as its system MMP-3 expression. Nature of the assay: Osteoarthritic rabbit model (ACLT), intraarticular injection, RT-PCR of MMP-3. Conditions: rabbit ACLT knee, intraarticular once a week for 5 weeks. The class given is in vivo. As for the experimental part:
(§1) Mature New Zealand White rabbits underwent bilateral anterior cruciate ligament transection (ACLT). ACLT was performed using a medial arthrotomy method. Postoperatively the animals were permitted cage (60 cm×60 cm×40 cm) activity without immobilization. The right knees received via intraartiticular injection DHEA, DHEA-pyruvate or DHEA+HA, 4 weeks after ACLT and once a week for 5 weeks. The left knees received 0.3 ml of intraarticular injection with control solution (carrier solution). After 9 weeks from ACLT, the animas were sacrificed.
(§2) Synovium (entire tissue) around the infrapatellar fat pads and cartilage tissue from the femoral condyle and the tibial plateau were harvested. The subsequent experimental procedure was the same as described in Test Example IV.

Assay [2] concerns type II collagen mRNA. Nature of the assay: RT-PCR of type II collagen mRNA in chondrocytes. The class given is cell-based, human. Conditions: for type II collagen gene up-regulation, enhancement: 72 hours. As for the experimental part:
(§3) Chondrocytes were isolated from the knee joint of patient undergoing a knee replacement due to osteoarthritis. Cartilage was digested with 0.2% protease Type XIV (Sigma) for 1 hour, followed by 3-hour incubation with 0.2% collagenase Type IA (Sigma) at 37° C. Following the incubation, the undigested cartilage fragments were removed using a 70 μm Nylon sieve. Chondrocytes were washed with DPBS and maintained in monolayer culture for 7 days in Dulbecco's modified Eagle's medium (DMEM; Life Technologies Inc.) which contained 10% fetal bovine serum (FBS; Life Technologies), 100 units/ml penicillin-streptomycin (Life Technologies) and 25 μg/ml L-ascorbic acid (Sigma). All experiments were performed with primary or first passage cells. The preparation of chondrocytes in alginate beads was carried out with 4×10^6 cells per 1 ml of alginate. Alginate cultures were maintained for 7 days at 37° C., 5% CO2 and 95% humidity and incubated with various concentrations of DHEA (0, 10, 50 or 100 μM) for a varing period of time. DHEA was purchased from Sigma and used after dissolving either in ethanol or dimethyl sulfoxide (DMSO). After a desired incubation period, cells were harvested by solubilizing the alginate beads in citrate buffer (55 mM sodium citrate, 0.15 M NaCl, pH 7.0) for 10 min at 37° C. and by centrifugation (300 g, 5 min).
(§4) Total RNA from chondrocytes was extracted using RNeasy Mini Kit (QIAGEN). Reverse transcription from 1 μg of total RNA was conducted using First Strand cDNA Synthesis Kit (MBI Fermentas) according to manufacturer's recommendation with random hexamers. […] All reactions were determined to be in the linear range of amplification with the cycle number ranging from 14 to 30. The PCR products were analyzed by separation on a 2% agarose gel followed by ethidium bromide staining. Following electrophoresis, photographs were taken and analyzed using a densitometric program (TINA; Raytest Isotopenmeβgerate, Germany). […] After normalizing with respect to GAPDH, percentage increase or decrease was determined. […]

Assay [3] concerns (IL-1β)-induced Cox-2 gene expression. Briefly: (IL-1β)-induced Cox-2 gene expression in chondrocytes. The class given is cell-based, human. Particulars: 10, 50, 100 μM with IL-1β, 72 hr. The method, then: (§5) Sixteen hours prior to a treatment, the complete culture medium was replaced with a serum-free medium. Chondrocyte alginate bead cultures were then treated with IL-1β ([…], (Calbiochem) and DHEA (0, 10, 50 or 100 μM) for 3 days.
(§6) Total RNA from chondrocytes was extracted using RNeasy Mini Kit (QIAGEN). Reverse transcription from 1 μg of total RNA was conducted using First Strand cDNA Synthesis Kit (MBI Fermentas) according to manufacturer's recommendation with random hexamers. The resulting cDNA was then amplified by polymerase chain reaction using AccuPower PCR Premix (Bioneer, Korea) in a final volume of 20 μl using three thermocycler temperatures (30 sec at […], 30 sec at 60° C., and 30 sec at […]). All reactions were determined to be in the linear range of amplification with the cycle number ranging from 14 to 30. The PCR products were analyzed by separation on a 2% agarose gel followed by ethidium bromide staining. Following electrophoresis, photographs were taken and analyzed using a densitometric program (TINA; Raytest Isotopenmeβgerate, Germany). Integrated density values for the genes in question were then normalized to the glyceraldehyde-3-phosphate dehydrogenase (GAPDH) values for a semiquantitative assessment. After normalizing with respect to GAPDH, percentage increase or decrease was determined. Each experiment was repeated at least three times. […]

The subject of assay [4] is MMP-3 mRNA. Nature of the assay: RT-PCR of MMP-3 mRNA in chondrocytes. The class given is cell-based, human. As for the experimental part: as §3, §4
The subject of assay [5] is MMP-1 mRNA. Nature of the assay: RT-PCR of MMP-1 mRNA in chondrocytes. Particulars: 100 μM. The class given is cell-based, human. As for the experimental part:
as §3, §6

Assay [6] relates to TIMP-1 mRNA. Nature of the assay: Osteoarthritic rabbit model (ACLT), intraarticular injection, RT-PCR of TIMP-1. Format: in vivo. Particulars: rabbit ACLT knee, intraarticular once a week for 5 weeks. As for the experimental part:
as §1, §2

Assay [7] has as its system MMP-1. Briefly: Western blot of MMP-1 in chondrocyte lysates. Particulars: 0, 10 or 100 μ DHEA, three days. Format: cell-based, human. The method, then: as §3, with “After a desired incubation period, cells were harvested by solubilizing the alginate beads in citrate buffer (55 mM sodium citrate, 0.15 M NaCl, pH 7.0) for 10 min at 37° C. and by centrifugation (300 g, 5 min).” left out
(§7) To investigate the effect of DHEA on the protein concentration, Western blot analysis was performed. […] Protein concentration of the supernatant was determined by Bio-Rad protein assay (Bio-Rad, USA) using bovine serum albumin (BSA) as a standard. […]

Assay [8] deals with (IL-1β)-induced MMP-1 mRNA. Nature of the assay: (IL-1β)-induced MMP-1 mRNA expression in chondrocytes, RT-PCR. The class given is cell-based, human. Conditions: 72 hr. The method, then:
as §5, §6

Assay [9] has as its system (IL-1β)-induced IL-6 gene expression. Briefly: (IL-1β)-induced IL-6 gene expression in chondrocytes. Format: cell-based, human. Particulars: 10, 50, 100 μM with IL-1β, 72 hr. The method, then: as §5, §6
Assay [10] relates to MMP-3. Nature of the assay: Western blot of MMP-3 in chondrocyte lysates. Conditions: 0, 10 or 100 μ DHEA, three days. The class given is cell-based, human. The method, then: as §3, with “After a desired incubation period, cells were harvested by solubilizing the alginate beads in citrate buffer (55 mM sodium citrate, 0.15 M NaCl, pH 7.0) for 10 min at 37° C. and by centrifugation (300 g, 5 min).” left out
as §7

Regarding `C[C@]12CC[C@H](O)CC1=CC[C@@H]1[C@@H]2CC[C@]2(C)C(=O)CC[C@@H]12` [DHEA, dehyroepiandrosterone], in assay [1], the “expression of MMP-3” value is “did not change”. Moreover, the “type II collagen gene up-regulation, enhancement” value is given as 132% in assay [2] (50 μM) and 146% in assay [2] (100 μM). In assay [2] (Homo sapiens, Chondrocyte, 100 μM, after 48 hr, read-out: type II collagen mRNA level, maximal stimulation), the Emax at 100 µM was determined as 276%. Besides, in [3], the “(IL-1β)-induced Cox-2 gene expression” value was “no significantly change”. Also, the “MMP-3 mRNA expression, decreased by” value in assay [4] (100 μM, after 24 hr of culture) was 73%. Also, in assay [4] (100 μM, after 72 hr), the “inhibitory activity of DHEA on the MMP-3, increase by” value came out at 131%. Besides, the “MMP-3 production, inhibition” value in [4] (10-100 μM, 72 hours, not dose-dependent) is 82-93%. Moreover, the “MMP-1 level, inhibition” value in assay [5] (72 hours) is on record as 48%. Moreover, the “MMP-1 mRNA level, reduced by” value in [5] (after 24 hr) turned out to be 43%; in assay [5] (after 48 hr), 35%. Further, the “MMP-1 mRNA expression” value in assay [5] (after 72 hr) was “markly inhibited”. For the same compound, the “expression of TIMP-1” value in [6] was “increased”. For the same compound, in assay [7], the “MMP-1 protein level (Western blot)” value is “reduced with increasing DHEA concentration”. For the same compound, the “(IL-1β)-induced up-regulation of MMP-1 mRNA, inhibition” value in assay [8] (10 μM DHEA with IL-1β) came out at 74%; in [8] (50 μM DHEA with IL-1β), 53%. Besides, the “(IL-1β)-induced IL-6 gene expression” value in assay [9] is listed as “no significantly change”. In addition, the “MMP-3 protein level (Western blot)” value in [10] is given as “did not change”.
